From article PMC5640878, “The GlyR Extracellular β8–β9 Loop – A Functional Determinant of Agonist Potency” (Frontiers in Molecular Neuroscience, 2017)
Like-named read-outs stand apart in the source and are kept apart here.

Experiments:
[1] = target: GlyRα1^Q177Rβ (UniProt P48167+Q64018, Q205R); experiment: whole-cell patch clamp recordings of transfected HEK293 cells
Procedure: (§3) HEK293 cells were transiently transfected using a modified calcium phosphate precipitation method. A mixture of plasmid DNA, CaCl2, 0.1x TE buffer and 2x HBS (50 mM HEPES, 12 mM glucose, 10 mM KCl, 280 mM NaCl, 1.5 mM Na2HPO4) was applied onto the cells. A GlyRα1 to GlyRβ ratio of 1:2 was used for co-expression. For GlyRα1:GlyRβ:GFP co-expression, a ratio of 1:2:1 was transfected. The same amount of DNA was used for GlyRα1 WT and mutants. Media were exchanged after 6–24 h. Immunocytochemical stainings and electrophysiological experiments were always done 24 h after transfection, biotinylation experiments were performed 48 h after transfection.
(§4) The patch clamp technique was used to measure current amplitudes (I) of transfected HEK293 cells. Currents were amplified using an EPC-9 amplifier and the software Patchmaster (HEKA, Lambrecht, Germany). Cells were patched 24 h after transfection in a whole-cell configuration mode. […] All agonist and antagonists were applied using an Octaflow II system (ALA Scientific Instruments, Farmingdale, NY, United States). The extracellular buffer consisted of (in mM): 137 NaCl, 5.4 KCl, 1.8 CaCl2, 1 MgCl2, 5 HEPES, pH adjusted to 7.4 with NaOH. The intracellular buffer contained (in mM): 120 CsCl, 20 N(Et)4Cl, 1 CaCl2, 2 MgCl2, 11 EGTA, 10 HEPES, pH adjusted to 7.2 with CsOH. Recording pipettes with an open resistance of 4–6 MΩ were manufactured from borosilicate capillaries using a P97 horizontal puller (Sutter Instrument, Novato, CA, United States). Cells were held at -60 mV and fast capacitances were in range of 11–13 pF. All experiments were performed at room temperature.
(§5) The following Hill equation was used: I = Imax ^∗ c^nHill/(c^nHill + EC50^nHill). I refers to the current amplitude at the given agonist concentration c, Imax is the current amplitude at a saturating agonist, EC50 refers to the agonist concentration evoking half-maximal current responses and nHill is the Hill coefficient.

[2] = target: GlyRα1^Q177Nβ (UniProt P48167+Q64018, Q205N); experiment: as above
[3] = target: T1, GlyRα1β WT (UniProt P48167+Q64018); experiment: as above; assay type: cell-based, murine
T1 construct: expressed in transfected cells; host or cells: HEK293
Procedure: (§1) Media were exchanged after 6–24 h.
(§2) All experiments were performed at room temperature.

[4] = tested on: GlyRα1^Q177β variants; conditions: saturating glycine (1 mM); HEK293, whole-cell
Procedure: as §1, §2

[5] = target: GlyRα1^Q177Aβ (UniProt P48167+Q64018, Q205A); experiment: whole-cell patch clamp recordings of transfected HEK293 cells
Procedure: as §3, §4, §5

[6] = target: GlyRα1^Q177Kβ (UniProt P48167+Q64018, Q205K); experiment: as above
Procedure: as §3, §4, §5

[7] = tested on: GlyR R65 mutated to alanine; conditions: ref Grudzinska et al., 2005; cited from earlier work
[8] = target: GlyRα1^Q177Eβ (UniProt P48167+Q64018, Q205E); experiment: whole-cell patch clamp recordings of transfected HEK293 cells
Procedure: as §3, §4, §5

[9] = tested on: GlyRα1^Q177K; conditions: shaky mouse; ref Schaefer et al., 2017; cited from earlier work
[10] = target: GlyRα1^Q177Gβ (UniProt P48167+Q64018, Q205G); experiment: whole-cell patch clamp recordings of transfected HEK293 cells
Procedure: as §3, §4, §5

[11] = target: GlyRα1^Q177Wβ (UniProt P48167+Q64018, Q205W); experiment: as above
Procedure: as §3, §4, §5

[12] = tested on: GlyR R65 mutated to lysine; conditions: ref Grudzinska et al., 2005; cited from earlier work
[13] = target: GlyRα1^Q177Dβ (UniProt P48167+Q64018, Q205D); experiment: whole-cell patch clamp recordings of transfected HEK293 cells
Procedure: as §3, §4, §5

[14] = target: GlyRα1^Q177Cβ (UniProt P48167+Q64018, Q205C); experiment: as above
Procedure: as §3, §4, §5

[15] = 100 μM taurine, HEK293, whole-cell
[16] = 10 mM taurine, HEK293, whole-cell, mutant probably not completely saturated
[17] = Hill coefficient of taurine concentration-response curve
[18] = 100 μM glycine, HEK293, co-expressed with GlyRβ, whole-cell
[19] = Hill coefficient of glycine concentration-response curve
[20] = read-out: EC50 glycine, HEK293, α1:β 1:2, whole-cell currents, 1–3000 μM glycine
[21] = 100 μM β-alanine, HEK293, whole-cell
[22] = Hill coefficient of β-alanine concentration-response curve
[23] = saturating 10 mM β-alanine, HEK293, whole-cell

NCCS(=O)(=O)O [taurine]
agonist-induced inward current at 100 μM taurine [1, 15]: 0 ± 0 nA
absolute current amplitude at 10 mM taurine (efficacy) [1, 16]: 3.1 ± 0.4 nA
nH taurine [1, 17]: 1.5
increase of the EC50 for taurine compared to GlyRα1β WT ([1]; human, hek293 cells): 5 fold
agonist-induced inward current at 100 μM taurine [2, 15]: 0.02 ± 0.001 nA
absolute current amplitude at 10 mM taurine (efficacy) [2, 16]: 2.7 ± 0.5 nA
nH taurine [2, 17]: 1.6
increase of the EC50 for taurine compared to GlyRα1β WT ([2]; human, hek293 cells): 2.1 fold
agonist-induced inward current at 100 μM taurine [3, 15]: 0.13 ± 0.06 nA
absolute current amplitude at 10 mM taurine (efficacy) ([3]; 10 mM taurine, HEK293, whole-cell): 5.7 ± 0.4 nA
EC50 ([3]; HEK293, co-expressed with GlyRβ, whole-cell, 3–10000 μM taurine, read-out: EC50 taurine): 593 ± 18 µM
nH taurine [3, 17]: 2.3

NCC(=O)O [glycine]
Imax values in comparison to GlyRα1β WT [4]: No significant differences
increase in glycine EC50 compared to GlyRα1β WT [5]: 3.6 fold
Mean Igly 100 μM ± SEM [5, 18]: 0.8 ± 0.3 nA
nH glycine [5, 19]: 2.0
EC50 [5, 20]: 208 ± 22 µM
increase in glycine EC50 compared to GlyRα1β WT [6]: 5.3 fold
Mean Igly 100 μM ± SEM [6, 18]: 0.6 ± 0.07^∗∗∗ nA
nH glycine [6, 19]: 2.2
EC50 [6, 20]: 312 ± 7 µM
decrease in glycine EC50 [7]: 1250 fold
increase in glycine EC50 compared to GlyRα1β WT [8]: 1.8 fold
Mean Igly 100 μM ± SEM [8, 18]: 1.6 ± 0.2 nA
nH glycine [8, 19]: 2.6
increase in glycine EC50 compared to GlyRα1β WT [1]: 4 fold
Mean Igly 100 μM ± SEM [1, 18]: 0.8 ± 0.07 nA
nH glycine [1, 19]: 2.0
EC50 [1, 20]: 231 ± 4 µM
binding to the mutated receptor compared to GlyRα1 WT [9]: bound with the same efficiency
increase in glycine EC50 compared to GlyRα1β WT [10]: 4.5 fold
Mean Igly 100 μM ± SEM [10, 18]: 0.3 ± 0.08 nA
nH glycine [10, 19]: 2.5
EC50 [10, 20]: 262 ± 13 µM
increase in glycine EC50 compared to GlyRα1β WT [2]: 1.6 fold
Mean Igly 100 μM ± SEM [2, 18]: 1.2 ± 0.2 nA
nH glycine [2, 19]: 3.0
increase in glycine EC50 compared to GlyRα1β WT [11]: 2.2 fold
Mean Igly 100 μM ± SEM [11, 18]: 1.8 ± 0.3 nA
nH glycine [11, 19]: 3.7
EC50 [11, 20]: 130 ± 12 µM
decrease in glycine EC50 [12]: 200 fold
Mean Igly 100 μM ± SEM [3, 18]: 3.8 ± 0.3 nA
nH glycine [3, 19]: 1.9
EC50 [3, 20]: 58 ± 4 µM
increase in glycine EC50 compared to GlyRα1β WT [13]: 2.3 fold
Mean Igly 100 μM ± SEM [13, 18]: 0.9 ± 0.3 nA
nH glycine [13, 19]: 3.4
EC50 [13, 20]: 137 ± 4 µM
increase in glycine EC50 compared to GlyRα1β WT [14]: 1.5 fold
Mean Igly 100 μM ± SEM [14, 18]: 1.8 ± 0.3 nA
nH glycine [14, 19]: 2.1

O=C1C[C@@H]2OCC=C3CN4CC[C@]56c7ccccc7N1[C@H]5[C@H]2[C@H]3C[C@H]46 [strychnine]
binding to the mutated receptor compared to GlyRα1 WT [9]: bound with the same efficiency

NCCC(=O)O [β-alanine]
EC50 [1]: 359 ± 19 µM
agonist-induced inward current at 100 μM β-alanine [1, 21]: 0.2 ± 0.07 nA
nH β-alanine [1, 22]: 1.9
absolute current amplitude at 10 mM β-alanine [1, 23]: 4.5 ± 0.9 nA
EC50 [2]: 203 ± 17 µM
agonist-induced inward current at 100 μM β-alanine [2, 21]: 0.87 ± 0.4 nA
nH β-alanine [2, 22]: 1.7
absolute current amplitude at 10 mM β-alanine [2, 23]: 4.1 ± 0.8 nA
agonist-induced inward current at 100 μM β-alanine [3, 21]: 1.3 ± 0.3 nA
EC50 ([3]; HEK293, co-expressed with GlyRβ, whole-cell, 3–10000 μM β-alanine, read-out: EC50 β-alanine): 157 ± 7 µM
nH β-alanine [3, 22]: 2.6
absolute current amplitude at 10 mM β-alanine [3, 23]: 5.3 ± 2 nA
